This note sets out measurements from patent US10189812B2, “Bi-benzyl isoquinoline derivative, preparation method and use thereof in hepatopathy treatment and prevention” (THE KEY LABORATORY OF CHEMISTRY FOR NATURAL PRODUCTS OF …, priority 2014, dated 2019).

Format in all cases: cell-based
One assay relates to BEL-7402 cell. As to the kind of experiment: Sulforhodamine B (SRB) growth inhibition of human liver cancer cell strain BEL-7402. The settings on record: for inhibition at 10 µM: Homo sapiens, read-out: BEL-7402/ Inhibition (%). As for the experimental part:
1. human liver cancer cell strains BEL-7402 model discrimination
Tested methods: Sulforhodamine B (SRB)
According to growth rate of tumor cells, the adherent cells in logarithmic growth phase was implanted into a 96-well cell culture plate by 200 μL per well. Adhering for 24 h before dosing, each concentration was set with 3 holes. The corresponding concentration of saline as for control group and withering holes without cells. The tumor cells were cultured for 72 h under 5% CO2 at 37° C.
The culture plate was takene out, 50 uL of trichloro acetic acid TCA fixed cells which were diluted to 50% (m/v) were added to each well. The plate was kept for 1 h at 4° C. If suspension cells are cultured, 50 uL cold TCA (80%) was added to each well. Final concentration of TCA is 16%, standed for 5 min, kept in a refrigerator for 1 h at 4° C.
Stationary liquid was sucked out, washed by 5 times with distilled water, dried in the air.
After drying in the air, 100 μL of SRB solution was added in each well, kept for 10-30 min at the room temperature.
The supernatant was sucked out, washed by 5 times with acetic acid (1%), dried in the air.
150 μL Tris solution was added in each well, vibrated for 5 min on the tablet oscillator.
OD values were measured with ELISA at 515 nm, zeroed with blank control.
Growth inhibition ratio of tumor cells was calculated according to the following formula: Inhibition=[(OD515control hole−OD515dosing hole)/OD515control hole]×100%.
According to inhibition ratio of different concentration, IC50 was determined with Logit method. Above experiment was repeated 2-3 times to give average IC50 values as for final index.
Model principle: SRB is a kind of protein binding dye which can be binded with basic amino acid in biological macromolecules. OD values in specific wavelength range have linear relationship with cell number. According to OD values of binding substance, action effect of sample on tumor cell is defected.

In assay [1] the test system is PLC/PRF/5 liver cancer cell strains. Briefly: Tetrazolium salt reduction method (MTT) on human liver cancer cell strain PLC/PRF/5. As for the experimental part: 2. human liver cancer cell strains PLC/PRF/5 model discrimination
(§1) Tested methods: Tetrazolium salt reduction method (MTT)
(1) Inoculating cells: A uniform cell suspension was prepared with culture solution containing fetal calf serum (10%). The suspension was implanted into a 96-well cell culture disc by 1000-10000 cells/200 μL per well.
(§2) (2) Culturing cells: The cells were cultured for 3-5 days according to known methods in the art (culturing time depending on experiment objective and requirement).
(§3) (3) Colour response: The cells were cultured for 3-5 days, 20 μl of MTT solution (5 mg/mL, PBS <pH=7.4>) was added in each well, incubated for 4 h. Culture was terminated and the culture suspension was carefully sucked out. As for suspension cells, they need be centrifuged before suspension solution in wells was sucked out. 150 μL of DMSO was added in each well, vibrated for 10 min. The crystal was fully dissolved.
(§4) (4) Colorimetry: Light absorbance values in each well were measured by ELISA at 490 nm and the results were recorded. The cell growth curve was drawn with time as the abscissa and absorbance values as vertical coordinates.
Model principle: Dehydrogenase related to NADP exists in mitochondria of living cell. Yellow MIT is reduced to insoluble blue-purple Formanzan. Dehydrogenase is disappeared in dead cell and MIT can not be reduced. According to reduction extent, action effect of sample on tumor cell is defected.

For assay [2], the system named is MHCC97L liver cancer cell strains. Briefly: Tetrazolium salt reduction method (MTT) on human liver cancer cell strain MHCC97L. As to the method:
3. human liver cancer cell strains MHCC97L model discrimination
as §1
(1) Inoculating cells: Inoculating cells: A uniform cell suspension was prepared with culture solution containing fetal calf serum (10%). The suspension was implanted into a 96-well cell culture disc by 1000-10000 cells/200 μL per well.
as §2, §3, §4
Model principle: Dehydrogenase related to NADP exists in mitochondria of living cell. Yellow MTT is reduced to insoluble blue-purple Formanzan. Dehydrogenase is disappeared in dead cell and MTT can not be reduced. According to reduction extent, action effect of sample on tumor cell is defected.

[3] abbreviates: Bel-7402, 1.00 × 10^−5 mol/L, SRB, cells cultured 72 h.
Setting [4] is: 1.00 × 10^−5 mol/L, SRB, cells cultured 72 h.
Setting [5] is: MTT, cells cultured 3-5 days, read-out: PLC/PRF/5 IC50.
Setting [6] is: MTT, cells cultured 3-5 days, read-out: MHCC97L IC50.
The mark [7] stands for this setting: Homo sapiens, PLC-PRF-5, read-out: PLC/PRF/5 IC50 (μM).
The mark [8] stands for this setting: Homo sapiens, MHCC97L, read-out: MHCC97L IC50 (μM).

Where two headings read alike, the source gives them in different places.

For `COc1cccc2c1C(=O)c1c(O)c3c(c(O)c1C2=O)C[C@@](O)(C(=O)CO)C[C@@H]3O[C@H]1C[C@H](N)[C@H](O)[C@H](C)O1` [Doxorubicin, reference compound], the inhibition at 10 µM in the assay with BEL-7402 cell (setting [3]) turned out to be 57.8 ± 4.05%.

On to `COc1cc(NS(=O)(=O)c2ccc(Cl)cc2)c2cc1Oc1ccc(cc1)C[C@H]1c3cc(c(OC)cc3CCN1C)Oc1c(OC)c(OC)cc3c1[C@H](C2)N(C)CC3` [Compound H-24], for which the “BEL-7402/ Inhibition (%)” value with BEL-7402 cell (setting [4]) turned out to be 90.01 ± 2.82%. In addition, the IC50 is 9.1 µM in assay [1] (setting [5]) and 8.2 µM in assay [2] (setting [6]).

Turning to `COc1cc(NS(=O)(=O)c2ccc(C)cc2)c2cc1Oc1ccc(cc1)C[C@H]1c3cc(c(OC)cc3CCN1C)Oc1c(OC)c(OC)cc3c1[C@H](C2)N(C)CC3` [Compound H-20], the “BEL-7402/ Inhibition (%)” value in the assay with BEL-7402 cell (setting [4]) is recorded as 93.91 ± 0.40%. In addition, the IC50 in assay [1] (setting [5]) came out at 11 µM; in assay [2] (setting [6]) it was 12.5 µM.

As to `COc1cc(NS(=O)(=O)c2ccc([N+](=O)[O-])cc2)c2cc1Oc1ccc(cc1)C[C@H]1c3cc(c(OC)cc3CCN1C)Oc1c(OC)c(OC)cc3c1[C@H](C2)N(C)CC3` [Compound H-19], the “BEL-7402/ Inhibition (%)” value with BEL-7402 cell (setting [4]) came to 92.70 ± 0.55%. The IC50 came out at 11.6 µM in assay [1] (setting [5]) and 9.4 µM in assay [2] (setting [6]).

With `COc1cc(NC(=O)N2CCOCC2)c2cc1Oc1ccc(cc1)C[C@H]1c3cc(c(OC)cc3CCN1C)Oc1c(OC)c(OC)cc3c1[C@H](C2)N(C)CC3` [Compound H-26], the “BEL-7402/ Inhibition (%)” value in the assay with BEL-7402 cell (setting [4]) came out at 89.60 ± 2.01%. The IC50 in assay [1] (setting [5]) is 12.2 µM; in assay [2] (setting [6]) it was 10.8 µM.

As to `COc1ccc2cc1Oc1ccc(cc1)C[C@H]1c3cc(c(OC)cc3CCN1C)Oc1c(O)c(OC)cc3c1[C@H](C2)N(C)CC3` [Tetrandrine B, reference compound], the inhibition at 10 µM in the assay with BEL-7402 cell (Bel-7402, 72 h) was 23.9 ± 3.65%. Further, the IC50 came to 16.9 µM in assay [1] (setting [7]) and 12.8 µM in assay [2] (setting [8]).

For `COc1cc(NC(=O)c2cccs2)c2cc1Oc1ccc(cc1)C[C@H]1c3cc(c(OC)cc3CCN1C)Oc1c(OC)c(OC)cc3c1[C@H](C2)N(C)CC3` [Compound H-16], the “BEL-7402/ Inhibition (%)” value in the assay with BEL-7402 cell (setting [4]) is recorded as 93.40 ± 4.70%. Moreover, the IC50 in assay [1] (setting [5]) is 9 µM; in assay [2] (setting [6]) it was 11.9 µM.

Consider `C=CC(=O)Nc1cc(OC)c2cc1C[C@H]1c3c(cc(OC)c(OC)c3Oc3cc4c(cc3OC)CCN(C)[C@H]4Cc3ccc(cc3)O2)CCN1C` [Compound H-10], for which, in the assay on BEL-7402 cell (Bel-7402, 72 h), the inhibition at 10 µM worked out at 87.74 ± 0.63%. Besides, the IC50 in assay [1] (setting [7]) was determined as 10.7 µM; in assay [2] (setting [8]), 10.4 µM.

With `COc1ccc2cc1Oc1ccc(cc1)C[C@H]1c3cc(c(OC)cc3CCN1C)Oc1c(OC)c(OC)cc3c1[C@H](C2)N(C)CC3` [Tetrandrine, 6,6′,7,12-tetramethoxy-2,2′-dimethyl berbamine, reference compound], the inhibition at 10 µM with BEL-7402 cell (setting [3]) is 53.9 ± 3.72%.

For the compound `COc1cc(NC(=O)c2ccco2)c2cc1Oc1ccc(cc1)C[C@H]1c3cc(c(OC)cc3CCN1C)Oc1c(OC)c(OC)cc3c1[C@H](C2)N(C)CC3` [Compound H-15], the “BEL-7402/ Inhibition (%)” value in the assay with BEL-7402 cell (setting [4]) is 87.23 ± 2.26%. Further, the values for the IC50 in assay [1] (setting [5]) and in assay [2] (setting [6]) were 2.5 µM and 2.1 µM, respectively.

`COc1cc(S(=O)(=O)O)c2cc1Oc1ccc(cc1)C[C@H]1c3cc(c(OC)cc3CCN1C)Oc1c(O)c(OC)cc3c1[C@H](C2)N(C)CC3` [Compound H-53]: the IC50 turned out to be 3.2 µM in assay [1] (Homo sapiens, PLC-PRF-5, MTT, cells cultured 3-5 days, read-out: PLC/PRF/5 IC50) and 1.1 µM in assay [2] (Homo sapiens, MHCC97L, MTT, cells cultured 3-5 days, read-out: MHCC97L IC50).
